The numbers were not newly measured in paper PMC11328599, “Crystal structure of dihydroneopterin aldolase from Mycobacterium tuberculosis associated with 8-mercaptoguanine, and development of novel S8-functionalized analogues as inhibitors: Synthesis, enzyme inhibition, in vitro toxicity and antitubercular activity” (Journal of Enzyme Inhibition and Medicinal Chemistry, 2024), which cites them from elsewhere.

The target of this data set is T1, MtFolB (Mycobacterium tuberculosis, UniProt P9WNC5).
T1 construct: made in house
The arrangement: method as in PMID 33752554. Conditions: previously reported; cited from earlier work.

T1 sequence (P9WNC5 whole entry): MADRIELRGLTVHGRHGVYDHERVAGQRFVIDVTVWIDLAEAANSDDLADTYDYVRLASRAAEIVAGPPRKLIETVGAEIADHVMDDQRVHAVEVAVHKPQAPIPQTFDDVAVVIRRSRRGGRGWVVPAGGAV

With `Nc1nc2nc(S)[nH]c2c(=O)[nH]1` [Compound 8-MG, 8-mercaptoguanine], the Inhibition mode entry was “non-competitive”.
